Experiments:
A431 cells [1] = assay: Cell viability (MTS) of A431 cells with aCD71-SPRN and saponin components; type: cell-based, human; settings: for potency of aCD71-SPRN versus co-administration / efficacy enhancement of aCD71-SPRN: 5 pM aCD71-SPRN 24 hr loading, wash; for efficacy enhancement of aCD71-SPRN: 24 hrs resting; for relative cell viability, efficacy of aCD71-SPRN: 5 pM aCD71-SPRN + concentration range of saponin component, 48 hr co-administration
Procedure: Cells were cultured in DMEM (PAN-Biotech GmbH) supplemented with 10% fetal bovine serum (FBS) (PAN-Biotech GmbH) and Pen/Strep (PAN-Biotech GmbH) at 37° C. and 5% CO2. Cells were seeded in a 96-well plate at 5.000-6.000 cells/well in 100 μL/well and incubated overnight at 37° C. […] The medium was removed from the cell culture plate and replaced by 180 μL fresh culture medium, followed by the addition of 20 μL 10× compound-mix/well. PBS treatment served as vehicle control. After 24 hrs treatment, the cells were washed and incubated with medium or medium containing PBS/saponin components for the time indicated in FIG. 6B, 6C, 6D at 37° C. At the end of the experiment at 48 hr after saponin component treatment or PBS treatment the cells were harvested for cell viability analysis. Alternatively, as a positive control, the cells were treated with a co-administration of protein toxin and saponin component (or PBS) mix for 48 hrs without medium change, FIG. 6A.
After treatment cell viability was determined by an MTS-assay, performed according to the manufacturer's instruction (CellTiter 96@AQueous One Solution Cell Proliferation Assay, Promega). Briefly, the MTS solution was diluted 20′ in DMEM without phenol red (PAN-Biotech GmbH) supplemented with 10% FBS. The cells were washed once with 200 μL/PBS well, after which 100 μL diluted MTS solution was added/well. The plate was incubated for approximately 20-30 minutes at 37° C. Subsequently, the OD at 492 nm was measured on a Spectramax iD5 plate reader (Molecular Devices). For quantification the background signal of ‘medium only’ wells was subtracted from all other wells, before the cell viability percentage of treated/untreated cells was calculated, by dividing the background corrected signal of treated wells over the background corrected signal of the untreated wells (×100).
One disadvantage of these types of immunotoxins for clinical use is their relatively narrow therapeutic window and associated potentially life-threatening toxicities at dose levels that are therapeutic. Here, the in vitro efficacy and enhancement of effect durability of an immunotoxin (anti-CD71-saporin, also referred to as aCD71-SPRN, protein toxin) by endosome escape enhancer saponin components was assessed in epidermoid carcinoma cells and metastatic melanoma cells. A concentration range of a saponin component was added either together with a fixed concentration of 5 pM aCD71-SPRN to the cancer cells, or at various time points after the loading of the cancer cells with a fixed concentration of 5 pM aCD71-SPRN (according to dosing schemes in FIG. 6A, 6B, 6C, 6D). As a negative control, cells were loaded with protein toxin according to scheme FIG. 6A-D but received medium with PBS instead of saponin component.

Ttr RNA = Ttr RNA quantification (qRT-PCR) in murine primary hepatocytes, depot release; type: cell-based, mouse; settings: 0.05 nM GN3-siTTR 6 hrs loading, wash, saponin component 48 hrs
Procedure: Wells of a 24- or 96-well plate (Greiner BioOne) were coated overnight at 37° C. with rat collagen-I (Ibidi). Next day the coating solution was removed and the wells were washed 1× with PBS (PAN-Biotech GmbH). Hepatocyte Plating Medium (HPM, […] Cell Culture Technology GmbH) was added using 210 μl or 35 μl per well, per 24-wp or 96-wp respectively. Next, GN3-siTTR/DPBS was dissolved at 10× the final concentration (final concentration is 0.5 nM or 0.05 nM GN3-siTTR, as indicated) and 90 μl or 15 μl was added to each well, per 24-wp or 96-wp respectively. Cryopreserved primary mouse hepatocytes (Cytes Biotechnology) were thawed in Hepatocyte Thawing Medium (HTM, […] Cell Culture Technology GmbH) and collected by centrifugation at 50×g for 10 min. […]
RNA from cells was isolated using TRIzol™ Reagent (Thermo Scientific) according to the manufacturer's instruction. […] Ttr expression levels and levels of specific hepatocyte housekeeping genes were determined using quantitative real-time PCR assays (qRT-PCR) using iTaq™ Universal SYBR® Green Supermix (BioRad) and the Light Cycler 480 II (Roche Diagnostics) with specific DNA primers, listed in Table A2. […]
The timed, saponin-component-inducible release of a nucleic acid from endosomes after prior loading cells with the nucleic acid was also assessed in vitro in murine primary hepatocytes (MPH) in different dosing regimens. […]

A431 cells [2] = assay: Imaging of Cy5 fluorescence release from Cet-Cy5 loaded A431 cells; type: cell-based, human; settings: A431 loaded with 2 nM Cet-Cy5 48 hrs, wash, 24 hrs resting, saponin component added at 72 hrs
Procedure: Cells were cultured in DMEM (PAN-Biotech GmbH) supplemented with 10% fetal bovine serum (FBS) (PAN-Biotech GmbH) and Pen/Strep (PAN-Biotech GmbH) at 37° C. and 5% CO2.

[3] = 6 hrs resting, saponin component 48 hrs
[4] = saponin component added directly, 48 hrs

Compound	potency of aCD71-SPRN versus co-administration (A431 cells [1]; [3])	efficacy enhancement of aCD71-SPRN (A431 cells [1]; saponin component 48 hrs)	potency of aCD71-SPRN versus co-administration (A431 cells [1]; [4])	relative cell viability, efficacy of aCD71-SPRN (A431 cells [1])	remaining Ttr levels (Ttr RNA)	Cy5 fluorescence state at end of experiment at 160 hrs (A431 cells [2])
CC(=O)OC1C(C)OC(OC2C(C)OC(OC(=O)[C@]34CCC(C)(C)CC3C3=CCC5[C@@]6(C)CC[C@H](OC7OC(C(=O)O)C(O)C(OC8OCC(O)C(O)C8O)C7OC7OC(CO)C(O)C(O)C7O)[C@@](C)(/C=N/NC(=O)CCCCCN7C(=O)CC(SCCO)C7=O)C6CC[C@@]5(C)[C@]3(C)C[C@H]4O)C(OC3OC(C)C(OC4OCC(O)C(OC5OC(CO)C(O)C(O)C5O)C4O)C(O)C3O)C2O)C(O)C1OC1OCC(O)C(O)C1O (some centres unmarked) [SO1861-AH-Maleimide-Block]	very comparable to the co-administration	still apparent	comparable high potency	reduces cell viability	3%	–
CC(=O)O[C@H]1[C@H](O[C@@H]2OC[C@@H](O)[C@H](O)[C@H]2O)[C@@H](O)[C@H](O[C@@H]2[C@H](O)[C@@H](O[C@@H]3O[C@@H](C)[C@H](O[C@@H]4OC[C@@H](O)[C@H](O[C@@H]5O[C@H](CO)[C@@H](O)[C@H](O)[C@H]5O)[C@H]4O)[C@@H](O)[C@H]3O)[C@H](OC(=O)[C@]34CCC(C)(C)C[C@H]3C3=CC[C@@H]5[C@@]6(C)CC[C@H](O[C@@H]7O[C@H](C(=O)O)[C@@H](O)[C@H](O[C@@H]8OC[C@@H](O)[C@H](O)[C@H]8O)[C@H]7O[C@@H]7O[C@H](CO)[C@H](O)[C@H](O)[C@H]7O)[C@@](C)(C=O)[C@@H]6CC[C@@]5(C)[C@]3(C)C[C@H]4O)O[C@@H]2C)O[C@@H]1C [SO1861]	very comparable to the co-administration	still apparent	comparable high potency	reduces cell viability	10%	zero fluorescent state
